Data from PMC8292411 (British Journal of Cancer, 2021).
“Also recorded” adds a separate entry of the source. Where a name gives a salt, the structure may show the parent alone. Read-outs that look alike come from different tables or passages of the source.

What was measured:
[1] = system: advanced HCC with MET overexpression; test: Phase 2 randomised efficacy, tepotinib vs sorafenib (TTP, PFS, OS, response; RECIST v1.1); type: in vivo, human; settings: Phase 2, mITT
Text: (§1) Patients in both phases continued to receive allocated therapy until disease progression, intolerable toxicity or withdrawal of consent.
(§2) In Phase 2, the primary endpoint was independent review committee (IRC)-assessed time to progression (TTP) per Response Evaluation Criteria in Solid Tumors (RECIST) v1.1. Secondary endpoints included investigator-assessed TTP, IRC- and investigator-assessed progression-free survival (PFS), objective response rate (ORR), disease control rate, OS and safety. In both phases, tumour assessments were performed according to RECIST v1.1 based on scans taken at the end of every second cycle until Cycle 13, and every four cycles thereafter.
(§3) In Phase 2, analyses were conducted according to randomised treatment assignment. […] In total, 100 TTP events were required to ensure 80% power (with a two-sided significance level of 10%) for rejecting the null hypothesis of equal treatment effect between treatment arms, assuming a true hazard ratio (HR) of 0.6. […] For the primary and secondary time-to-event endpoints, treatment groups were compared in the mITT population, applying a two-sided log-rank test, stratified by BCLC stage (α = 10%).

[2] = system: SACT-naive Asian patients with aHCC with MET overexpression; test: Phase 2 safety (adverse events, NCI-CTCAE v4.0); settings: for treatment-related AEs: ALT increased / treatment-related AEs: AST increased / treatment-related AEs: Alopecia / treatment-related AEs: Blood bilirubin increased / treatment-related AEs: Blood creatinine increased / treatment-related AEs: Diarrhoea / treatment-related AEs: Fatigue / treatment-related AEs: Hypertension / treatment-related AEs: Hypoalbuminaemia / treatment-related AEs: Oedema peripheral / treatment-related AEs: Overall / treatment-related AEs: PPES: Phase 2, safety analysis set
Procedure: as §1
DLTs are defined in Supplementary Table 3.
as §3

advanced HCC [3] = settings: Phase 3 SHARP sorafenib trial; cited from earlier work
advanced HCC [4] = settings: Phase 3 Asia-Pacific sorafenib trial; cited from earlier work
advanced HCC [5] = test: Phase 1b tumour response per RECIST v1.1; type: in vivo, human; settings: for duration of partial response: one patient
Procedure: as §2

[6] = Phase 1b pharmacokinetics, Cycle 1 Day 15; type: in vivo, human; settings: for AUC / Cmax: human, in vivo, oral, Cycle 1 Day 15, geometric mean
Procedure: Secondary endpoints in Phase 1b included efficacy measures and pharmacokinetic parameters, such as Cmax and area under the concentration–time curve over the dosing interval at steady state (AUCτ,ss), which were evaluated at Cycle 1, Day 15.

[7] = patients with moderate hepatic impairment (Child–Pugh B); cited from earlier work
[8] = system: Asian patients with advanced HCC; test: Phase 1b dose escalation: DLTs and adverse events
Procedure: This was an open-label, multicentre, integrated, Phase 1b/2 trial conducted in Asian patients with advanced HCC (NCT01988493). […] Phase 1b was conducted at eight sites and Phase 2 at 43 sites in mainland China, South Korea and Taiwan.
Once three patients had completed one cycle at 500 mg, nine further patients were to be enrolled at this dose level to confirm the RP2D. […] The Safety Monitoring Committee (SMC) could also recommend enrolment of additional patients at or above the RP2D.
In Phase 1b, the primary endpoint was the incidence of investigator-assessed DLTs occurring in Cycle 1, as well as the incidence of other AEs (graded according to the National Cancer Institute Common Terminology and Criteria for Adverse Events, v4.0). […] Secondary endpoints in Phase 1b included efficacy measures and pharmacokinetic parameters, such as Cmax and area under the concentration–time curve over the dosing interval at steady state (AUCτ,ss), which were evaluated at Cycle 1, Day 15.

MET = system: MET; design: method as in PMID 28862760; settings: cited from earlier work
HCC with MET alterations = system: HCC with MET alterations; design: method as in PMID 31853265; settings: 30 patients with HCC with MET alterations, first-line; cited from earlier work
[9] = Phase 1b, 500 mg dose, comparator ref 13
[10] = Phase 1b, across all dose cohorts

## CNC(=O)c1cc(Oc2ccc(NC(=O)Nc3ccc(Cl)c(C(F)(F)F)c3)cc2)ccn1 [Sorafenib, sorafenib]
[1]
  ORR by IRC: 0%
  median OS: 8.6 months
  median PFS assessed by IRC: 1.4 months
  median investigator-assessed PFS: 2.8 months
  median investigator-assessed TTP: 2.8 months
[1]; IRC
  Best overall response: Complete response: 0 (0.0)
  Best overall response: Non-complete response/non-partial response: 0 (0.0)
  Best overall response: Partial response: 0 (0.0)
  Best overall response: Progressive disease: 25 (67.6)
  Best overall response: Stable disease: 8 (21.6)
  Objective response rate: 0 (0.0) n (%)
  disease control: 21.6%
  disease control rate: 8 (21.6) n (%)
[1]; tepotinib 500 mg QD, sorafenib 400 mg twice daily
  median IRC-assessed time to progression (TTP): 1.4 months
[2]; Phase 2
  aspartate transaminase increase, any cause: 36.4%
  deaths deemed treatment-related: neither were deemed treatment-related
  decreased appetite, any cause: 40.9%
  diarrhoea, any cause: 38.6%
  palmar–plantar erythrodysesthesia, any cause: 61.4%
  patients who died due to AEs while on treatment: Two
  patients with AEs of any cause: 97.7%
  patients with Grade ≥3 AEs of any cause: 70.5%
  permanent treatment discontinuation due to AEs of any cause: 13.6%
[2]; Phase 2, any grade
  treatment-related diarrhoea: 31.8%
  treatment-related palmar–plantar erythrodysesthesia: 61.4%
[2]; Any grade
  treatment-related AEs: ALT increased: 7 (15.9) n (%)
  treatment-related AEs: AST increased: 10 (22.7) n (%)
  treatment-related AEs: Alopecia: 10 (22.7) n (%)
  treatment-related AEs: Blood bilirubin increased: 8 (18.2) n (%)
  treatment-related AEs: Blood creatinine increased: 0 (0.0) n (%)
  treatment-related AEs: Diarrhoea: 14 (31.8) n (%)
  treatment-related AEs: Fatigue: 11 (25.0) n (%)
  treatment-related AEs: Hypertension: 11 (25.0) n (%)
  treatment-related AEs: Hypoalbuminaemia: 2 (4.5) n (%)
  treatment-related AEs: Oedema peripheral: 0 (0.0) n (%)
  treatment-related AEs: Overall: 43 (97.7) n (%)
  treatment-related AEs: PPES: 27 (61.4) n (%)
[2]; Grade ≥ 3
  treatment-related AEs: ALT increased: 0 (0.0) n (%)
  treatment-related AEs: AST increased: 3 (6.8) n (%)
  treatment-related AEs: Alopecia: 0 (0.0) n (%)
  treatment-related AEs: Blood bilirubin increased: 2 (4.5) n (%)
  treatment-related AEs: Blood creatinine increased: 0 (0.0) n (%)
  treatment-related AEs: Diarrhoea: 3 (6.8) n (%)
  treatment-related AEs: Fatigue: 0 (0.0) n (%)
  treatment-related AEs: Hypertension: 6 (13.6) n (%)
  treatment-related AEs: Hypoalbuminaemia: 0 (0.0) n (%)
  treatment-related AEs: Oedema peripheral: 0 (0.0) n (%)
  treatment-related AEs: Overall: 20 (45.5) n (%)
  treatment-related AEs: PPES: 3 (6.8) n (%)
[2]; Phase 2, text
  treatment-related AEs, Grade ≥3, overall: 45.5%
  treatment-related AEs, any grade, overall: 97.7%
Advanced HCC [3]
  median TTP: 5.5 months
Advanced HCC [4]
  median TTP: 2.8 months

## CN1CCC(COc2cnc(-c3cccc(Cn4nc(-c5cccc(C#N)c5)ccc4=O)c3)nc2)CC1 [Tepotinib, tepotinib hydrochloride hydrate]
Advanced HCC [5]; Phase 1b, 300 mg cohort
  best overall response of progressive disease: 85.7%
  best overall response of stable disease: 14.3%
  disease control rate: 14.3%
Advanced HCC [5]; Phase 1b, 500 mg cohort
  best overall response of progressive disease: 35.7%
  best overall response of stable disease: 42.9%
  objective response rate (ORR): 7.1%
  duration of partial response: 19 months
Advanced HCC [5]; Phase 1b, 1,000 mg cohort
  best overall response of progressive disease: 50.0%
  best overall response of stable disease: 33.3%
  objective response rate (ORR): 16.7%
  duration of partial response: 4.4 months
[6]; [9]
  AUCτ as percentage of that observed in the first-in-human trial: 61%
  Cmax as percentage of that observed in the first-in-human trial: 63%
[6]; 1000 mg, Phase 1b, 1,000 mg QD
  AUC: 28600 ng·h/mL
  Cmax: 1370 ng/mL
[6]; Phase 1b, 300 mg QD
  AUC: 11800 ng·h/mL
  Cmax: 585 ng/mL
[6]; Phase 1b, 500 mg QD
  AUC: 16700 ng·h/mL
  Cmax: 815 ng/mL
[7]
  lower AUC from time 0 to infinity versus control subjects without hepatic impairment: 12%
  lower Cmax versus control subjects without hepatic impairment: 29%
[8]; Phase 1b, 300, 500 or 1,000 mg QD, Cycle 1
  dose-limiting toxicities (DLTs): no DLTs occurred; also recorded: No DLTs were observed; also recorded: no DLTs were reported
[8]; [10]
  treatment-related AEs, Grade ≥3: 33.3%
  treatment-related AEs, any grade: 81.5%
[8]; Phase 1b, n = 27
  patients with AEs of any cause: All patients

## COc1cc2nccc(Oc3ccc(NC(=O)C4(C(=O)Nc5ccc(F)cc5)CC4)cc3)c2cc1OC [cabozantinib]
MET
  in vitro IC50 for MET inhibition: low nanomolar range

## CNC(=O)c1ccc(-c2cnc3ncc(Cc4ccc5ncccc5c4)n3n2)cc1F [capmatinib]
HCC with MET alterations
  ORR: 10%

## O=C1NC(=O)[C@@H](c2cn3c4c(cccc24)CCC3)[C@@H]1c1c[nH]c2ccccc12 [tivantinib]
MET; relative to tepotinib, cabozantinib and capmatinib
  affinity for the MET receptor: lower affinity for the receptor
